{"source": "patent US20220348569A1", "about": "(priority 2021, published 2022)", "key": {"in vitro [1]": {"test": "in vitro", "settings": "human"}, "in vitro [2]": {"test": "in vitro", "settings": "human", "remark": "listed apart in the source"}, "SARS-CoV-2 pseudovirus": {"tested_on": "SARS-CoV-2 pseudovirus", "test": "microbe, parasite or virus in culture", "assay_type": "cell-based"}, "in vitro [3]": {"test": "in vitro", "settings": "human", "remark": "listed apart in the source"}, "MERS-CoV pseudovirus": {"tested_on": "MERS-CoV pseudovirus", "test": "microbe, parasite or virus in culture", "assay_type": "cell-based", "settings": "Middle East respiratory syndrome-related coronavirus, Huh-7"}, "in vitro [4]": {"test": "in vitro", "settings": "human, Caco-2, pH 7.4"}, "[5]": {"settings": "both, human, microsomes"}, "in vitro [6]": {"test": "in vitro", "settings": "both, human, plasma"}}, "note": "“Also recorded” adds a separate entry of the source."}
{"smiles": "C=CCN1C(=O)/C(=C/c2ccc(-c3cccc(C(=O)O)c3)o2)SC1=S", "note": "[Compound 17]", "values": [{"measurement": "CC50", "setting": "in vitro [1]", "value": "> 100", "unit": "µM"}, {"measurement": "CC50", "setting": "in vitro [2]", "value": "> 100", "unit": "µM"}]}
{"smiles": "O=C(O)c1cc(-c2ccc(/C=C3\\SC(=S)N(C4CCCCC4)C3=O)o2)ccc1Cl", "note": "[Compound 18]", "values": [{"measurement": "CC50", "setting": "in vitro [1]", "value": "> 100", "unit": "µM"}, {"measurement": "antiviral activity against SARS-CoV-2 pseudovirus (in words)", "setting": "SARS-CoV-2 pseudovirus", "value": "excellent antiviral activity; also recorded: low nM IC50"}, {"measurement": "CC50", "setting": "in vitro [3]", "value": "> 100", "unit": "µM"}, {"measurement": "CC50", "setting": "in vitro [2]", "value": "> 100", "unit": "µM"}, {"measurement": "IC50", "setting": "MERS-CoV pseudovirus", "value": "0.0105 ± 0.0009", "unit": "µM"}]}
{"smiles": "C=CCN1C(=O)/C(=C/c2ccc(-c3cc(C(=O)O)cc(C(=O)O)c3)o2)SC1=S", "note": "[Compound 19]", "values": [{"measurement": "CC50", "setting": "in vitro [1]", "value": "> 100", "unit": "µM"}, {"measurement": "CC50", "setting": "in vitro [2]", "value": "> 100", "unit": "µM"}]}
{"smiles": "C=CCN1C(=O)/C(=C/c2ccc(-c3cccc(C(=O)O)c3C)o2)SC1=S", "note": "[Compound 20]", "values": [{"measurement": "CC50", "setting": "in vitro [1]", "value": "> 100", "unit": "µM"}, {"measurement": "CC50", "setting": "in vitro [3]", "value": "84 ± 4", "unit": "µM"}, {"measurement": "CC50", "setting": "in vitro [2]", "value": "> 100", "unit": "µM"}, {"measurement": "IC50", "setting": "MERS-CoV pseudovirus", "value": "0.34 ± 0.112", "unit": "µM"}]}
{"smiles": "O=C1NC(=S)S/C1=C\\c1ccc(-c2ccc(C(=O)O)c(Cl)c2)o1", "note": "[Compound 21]", "values": [{"measurement": "CC50", "setting": "in vitro [1]", "value": "> 100", "unit": "µM"}, {"measurement": "CC50", "setting": "in vitro [2]", "value": "> 100", "unit": "µM"}]}
{"smiles": "Cc1ccc(-c2ccc(/C=C3\\SC(=S)N(CC(C)C)C3=O)o2)cc1C(=O)O", "note": "[Compound 22]", "values": [{"measurement": "CC50", "setting": "in vitro [1]", "value": "68 ± 4", "unit": "µM"}, {"measurement": "CC50", "setting": "in vitro [2]", "value": "70 ± 4", "unit": "µM"}]}
{"smiles": "C#CCN1C(=O)/C(=C/c2ccc(-c3ccc(Cl)c(C(=O)O)c3)o2)SC1=S", "note": "[Compound 23]", "values": [{"measurement": "antiviral activity against SARS-CoV-2 pseudovirus (in words)", "setting": "SARS-CoV-2 pseudovirus", "value": "did not display any activity at the highest dose tested"}]}
{"smiles": "CCN1C(=O)/C(=C/c2ccc(-c3ccc(Cl)c(C(=O)O)c3)o2)SC1=S", "note": "[Compound 24]", "values": [{"measurement": "CC50", "setting": "in vitro [1]", "value": "78 ± 3", "unit": "µM"}, {"measurement": "CC50", "setting": "in vitro [3]", "value": "~100", "unit": "µM"}, {"measurement": "CC50", "setting": "in vitro [2]", "value": "> 100", "unit": "µM"}, {"measurement": "IC50", "setting": "MERS-CoV pseudovirus", "value": "0.088 ± 0.013", "unit": "µM"}]}
{"smiles": "O=C(O)c1cccc(-c2ccc(/C=C3\\SC(=S)N(C4CCCCC4)C3=O)o2)c1", "note": "[Compound 25]", "values": [{"measurement": "CC50", "setting": "in vitro [1]", "value": "> 100", "unit": "µM"}, {"measurement": "antiviral activity against SARS-CoV-2 pseudovirus (in words)", "setting": "SARS-CoV-2 pseudovirus", "value": "displayed antiviral potency"}, {"measurement": "CC50", "setting": "in vitro [3]", "value": "> 100", "unit": "µM"}, {"measurement": "CC50", "setting": "in vitro [2]", "value": "> 100", "unit": "µM"}, {"measurement": "IC50", "setting": "MERS-CoV pseudovirus", "value": "0.247 ± 0.047", "unit": "µM"}]}
{"smiles": "N=C1NC(=O)/C(=C/c2ccc(-c3ccc(Cl)c(C(=O)O)c3)o2)S1", "note": "[Compound 26]", "values": [{"measurement": "CC50", "setting": "in vitro [1]", "value": "> 100", "unit": "µM"}]}
{"smiles": "CN1C(=O)/C(=C/c2ccc(-c3cccc(C(=O)O)c3)o2)SC1=S", "note": "[Compound 27]", "values": [{"measurement": "CC50", "setting": "in vitro [3]", "value": "> 100", "unit": "µM"}, {"measurement": "IC50", "setting": "MERS-CoV pseudovirus", "value": "0.096 ± 0.014", "unit": "µM"}]}
{"smiles": "O=C1NC(=S)S/C1=C\\c1ccc(-c2ccc(C(=O)O)cc2)o1", "note": "[Compound 28]", "values": [{"measurement": "antiviral activity against SARS-CoV-2 pseudovirus (in words)", "setting": "SARS-CoV-2 pseudovirus", "value": "loses the inhibitory activity; also recorded: showed no inhibition"}]}
{"smiles": "CC(C)NCC(O)COc1cccc2ccccc12", "note": "(stereo not shown) [Propranolol]", "values": [{"measurement": "Papp", "setting": "in vitro [4]", "value": 19.7, "unit": "×10⁻⁶ cm/s"}]}
{"smiles": "C[C@]12CC[C@H]3[C@@H](CCC4=CC(=O)CC[C@@]43C)[C@@H]1CC[C@@H]2O", "note": "[Testosterone, reference compound]", "values": [{"measurement": "half-life", "setting": "[5]", "value": 11.3, "unit": "min"}]}
{"smiles": "CC(=O)CC(c1ccccc1)c1c(O)c2ccccc2oc1=O", "note": "(stereo not shown) [Warfarin]", "values": [{"measurement": "fraction unbound", "setting": "in vitro [6]", "value": 0.018}]}
